Here are results for 3 compounds from US12642790B2, “Drug combination for treating obesity” (The Curators of the University of Missouri, priority 2022, dated 2026).

Data set [1] has as its system UCP1. The experiment in a line: ucp1 mRNA induction in primary adipocytes by qRT-PCR. The conditions noted are these: primary adipocytes from male C57BL6J mice; 1 uM CL with 1 uM PHTPP or 10 nM DPN; 24 hours; compared to CL alone; FIG. 4. It is filed as cell-based. On the procedure: To test the hypothesis in vitro, that inhibition of genomic activity of ERβ would enhance the effectiveness of the […], CL316,243 (CL) to induce expression of the mitochondrial UCP1, primary adipocytes were treated with the following: (a) CL, (b) diarylpropionitrile (DPN) (i.e., ligand known to promote classical genomic functions of ERβ), (c) 4-(2-phenyl-5,7-bis(trifluoromethyl)pyrazolo[1,5-a]pyrimidin-3-yl)phenol (PHTPP) (i.e., ligand known to suppress classical genomic functions of ERβ), (d) CL+DPN, and (e) CL+PHTPP. Briefly, perigonadal and subcutaneous WAT was harvested from male C57BL6J mice, digested in collagenase to isolate stromal vascular cells then cultured in Dulbecco's modified eagle medium/nutrient mixture F12 media supplemented with 10% fetal bovine serum, 1% GlutaMax, 0.1% gentamicin and 0.05% insulin at 37° C. and 5% CO2. Adipocyte differentiation was induced by supplementing media with 0.5 mM 3-isobutyl-1-methylxanithin, 1 uM dexamethasone, and […] for 48 hours. 14 days post induction, primary adipocytes were treated with either 1 uM CL, 10 nM DPN, 1 uM PHTPP or a combination of ligands as outlined above. After 24 hours treatment, ucp1 mRNA induction was measured using qRT-PCR. […] Ucp1 mRNA expression is expressed as 2^ΔCT where ΔCT=housekeeping CT−Ucp1 CT and presented as fold difference relative to control (CTRL). […]

For another data set, the system named is ERβ. The experiment in a line: Western blot of ERβ protein in inguinal subcutaneous adipose tissue of diet-induced obese WT and ERβDBDKO mice. Particulars: daily injections of CL for two weeks; ERβDBDKO vs WT diet-induced obese mice; GxT p<0.001; FIG. 1B. It is filed as in vivo. From the text:
(§1) Inguinal subcutaneous adipose tissue was harvested from diet-induced obese male and female wild-type (WT) and estrogen receptor beta (ERβ) DNA-binding domain (DBD) knock-out (ERβDBDKO) mice that were given daily injections of CL316,243 (CL), a beta3 adrenergic receptor (B3AR) ligand, for two weeks. ERβDBDKO mice express a mutated form of ERβ that lacks genomic activity by genetic ablation of the DBD, however still retain non-classical (i.e., non-genomic) signaling through ERβ. Protein was then isolated from the adipose tissue using Thermo Scientific™ RIPA lysis and extraction buffer, quantified using BCA method, then 10 ug was separated on a 4-20% SDS-PAGE gel followed by transfer to polyvinylidene difluoride membranes using BioRad Trans-Turbo Blot system. […] Images were captured on a ChemiDoc Imaging System (BioRad, Hercules, CA), band intensity was quantified using ImageLab software (BioRad), then ERβ and UCP1 protein expression was quantified relative to beta actin.
(§2) FIG. 1A is a Western blot showing the levels of ERβ and UPC1 in WT and ERβDBDKO (“KO”) mice, in the presence and absence of CL316243 (“CL”). The blot in FIG. 1A was scanned to quantify the band intensity, and the data used to graph the relative protein fold change for ERβ (FIG. 1B) and UCP-1 (FIG. 1C).

Data set [2] deals with UCP1. Put plainly: Western blot of UCP1 protein in inguinal subcutaneous adipose tissue of diet-induced obese WT and ERβDBDKO mice. It is filed as in vivo. The conditions noted are these: daily injections of CL for two weeks; ERβDBDKO vs WT diet-induced obese mice; GxT p=0.017; FIG. 1C.
Source text: as §1, §2

For data set [3] the following is noted: administration of mirabegron; cited from earlier work.
A further data set has as its system white adipose tissue. Particulars: obese human individuals; cited from earlier work.

Consider `Oc1ccc(-c2c(-c3ccccc3)nn3c(C(F)(F)F)cc(C(F)(F)F)nc23)cc1` [PHTPP, 4-(2-phenyl-5,7-bis(trifluoromethyl)pyrazolo[1,5-a]pyrimidin-3-yl)phenol], for which the “Ucp1 mRNA expression, fold difference relative to control” value in the data set with UCP1 [1] is “increases the CL-mediated induction of UCP1”. On to `C[C@H](Cc1ccc2c(c1)OC(C(=O)[O-])(C(=O)[O-])O2)NC[C@H](O)c1cccc(Cl)c1.[Na+].[Na+]` [CL], for which the “ERβ protein content in WAT (relative to beta actin)” value in the data set with ERβ was “increases ERβ protein content in WAT to a greater level in ERβDBDKO mice compared to WT”. The “UCP1 protein content (relative to beta actin)” value in the data set with UCP1 [2] was “increases UCP1 protein content in ERβDBDKO mice more so than in WT mice”. For the compound `Nc1nc(CC(=O)Nc2ccc(CCNC[C@H](O)c3ccccc3)cc2)cs1` [mirabegron], the side effects entry in data set [3] is “may result in hypertension, nasopharyngitis, tachycardia, headaches, urinary tract infections, upper respiratory tract infections, constipation, abdominal pain, and fatigue”. In addition, the “white adipose tissue dysfunction” value in the data set on white adipose tissue is given as “reduced white adipose tissue dysfunction”.
